Experiment: DPPH free radical scavenging activity test (percent inhibition, absorbency at 516 nm)
Assay type: biochemical
Settings: Table 1; 1% solutions, in the manner of Example 1 (DPPH, 30 minutes at 37° C, 516 nm)
Method: A control solution was prepared by measuring 39.43 mg of 2,2-diphenyl-1-picrylhydrazyl hydrate (DPPH), a known source of free radicals, and diluting it to 1000 ml with ethanol. A control cuvette was charged with 1.75 ml of the control and 1.75 ml of ethanol. A blank cuvette was charged with 3.5 ml of ethanol. The cuvettes were placed in an oven for 30 minutes at 37° C. The absorbency was measured at 516 nm using a UV/vis spectrophotometer by placing the blank cuvette into the reference slot and the control cuvette into the sample slot.
An orange extract was prepared according to the method described above. A test cuvette was charged with 1.75 ml of the control solution and 1.75 ml of a 1% solution of orange extract. A reference cuvette was charged with 1.75 ml of the orange extract and 1.75 ml of ethanol. The cuvettes were placed in an oven for 30 minutes at 37° C. The absorbency was measured in the manner described above with the test cuvette placed in the sample slot and the reference cuvette placed in the reference slot.
The free radical scavenging activity was calculated as a percentage of inhibition of the generation of the free radicals using the following formula:
Percent Inhibition=100×[1-(DT/DR)]
DT is the measured absorbance of the test cuvette with respect to the reference cuvette and DR is the measured absorbance of the control cuvette with respect to the blank cuvette. […]

Row | Structure (SMILES) | % INHIBITION [%]
1 | O=c1oc2cc(O)ccc2s1 [Tioxolone, tioxolone] | 50
2 | CC(=O)Oc1c(C)c(C)c2c(c1C)CCC(C)(CCC[C@H](C)CCC[C@H](C)CCCC(C)C)O2 (some centres unmarked) [Tocopheryl Acetate, tocopheryl acetate] | 67
